Consider one molecule from patent publication US9351941B2, “Radiofrequency-induced synchronization of in situ hyperthermia and chemotherapy via magnetic-nanoconjugates” (National Cheng Kung University, priority 2012, dated 2016).

The experiment has as its system tumor. The experiment is described as follows: targeting hyperthermia and chemotherapy through tail vein injection with RF treatment (FIG. 8). In kind it is in vivo, C3H/HeN mice. Particulars: 5-FU injection alone, 770 nM, equivalent to total nanoparticle loaded drugs. How it is done:
In addition, in an embodiment according to the present invention, targeting hyperthermia and chemotherapy through tail vein injection of the 5-FU-loaded Fe3O4@anti-HER2 nanoparticle (500 μg/mL) in a serial single daily dose for four consecutive days are evaluated. RF treatments are given 24 h after the nanoparticle had been injected. […] This indicates nanoparticle accumulation within tumor dissipate sufficient heat to generate hyperthermia effect.
Groups of male C3H/HeN mice 6-8 weeks old in this experiment were given a tail-vein injection of 200 μL 5-FU-loaded Fe3O4@anti-HER2 magnetic nanoparticle in PBS ([…]) or of PBS alone. One group of mice was sacrificed 24 h after the tail-vein injection. The rest of the mice were given 15 min RF treatment 24 h after the tail-vein injection. Twenty-four hours after the RF treatment, the mice were overdosed with the anesthetics ketamine and xylazine (8.7 mg/100 g and 1.3 mg/100 g), and their major organs (brain, heart, lungs, spleen, liver, kidneys) and blood were collected. Each organ was homogenized and dissolved in nitro-hydrochloric acid. The sample solutions were continuously shaken for two days to ensure Fe dissociation. All samples were filtered before analyzed using atomic absorption spectrometer (Solar M6 series; Unicam, UK). […]

Turning to `O=c1[nH]cc(F)c(=O)[nH]1` [5-FU, 5-fluorouracil], the tumor growth entry is recorded as “unable to suppress tumor growth”.
